Active and inactive are the calls of the source. The rule behind the calls is not given here.
Legend:
Mus musculus [1] = assay: Anticonvulsant activity in ip dosed albino CF1 mouse assessed as protection against maximal electroshock-induced seizures; type: functional
Mus musculus [2] = assay: Anticonvulsant activity in ip dosed albino CF1 mouse assessed as protection against subcutaneous metrazol-induced seizures; type: functional
[3] = Neurotoxicity in ip dosed albino CF1 mouse; type: toxicity, organism-based; settings: in vivo
Mus musculus [4] = assay: Anticonvulsant activity in ip dosed albino CF1 mouse assessed as protection against maximal electroshock-induced seizures measured as time to peak effect; type: functional
Mus musculus [5] = assay: Anticonvulsant activity in albino CF1 mouse assessed as protection against maximal electroshock-induced seizures at 100 mg/kg, ip measured after 0.25 hr; type: functional, organism-based; set-up: dose 100 mg/kg
Mus musculus [6] = assay: Anticonvulsant activity in albino CF1 mouse assessed as protection against maximal electroshock-induced seizures at 100 mg/kg, ip measured after 0.5 hr; type: functional, organism-based; set-up: dose 100 mg/kg
Mus musculus [7] = assay: Anticonvulsant activity in albino CF1 mouse assessed as protection against maximal electroshock-induced seizures at 100 mg/kg, ip measured after 1 hr; type: functional, organism-based; set-up: dose 100 mg/kg
Mus musculus [8] = assay: Anticonvulsant activity in albino CF1 mouse assessed as protection against maximal electroshock-induced seizures at 100 mg/kg, ip measured after 4 hrs; type: functional, organism-based; set-up: dose 100 mg/kg
Mus musculus [9] = assay: Anticonvulsant activity in albino CF1 mouse assessed as protection against subcutaneous metrazol-induced seizures at 100 mg/kg, ip measured after 0.25 hr; type: functional, organism-based; set-up: dose 100 mg/kg
Mus musculus [10] = assay: Anticonvulsant activity in albino CF1 mouse assessed as protection against subcutaneous metrazol-induced seizures at 100 mg/kg, ip measured after 0.5 hr; type: functional, organism-based; set-up: dose 100 mg/kg
Mus musculus [11] = assay: Anticonvulsant activity in albino CF1 mouse assessed as protection against subcutaneous metrazol-induced seizures at 100 mg/kg, ip measured after 1 hr; type: functional, organism-based; set-up: dose 100 mg/kg
Mus musculus [12] = assay: Anticonvulsant activity in albino CF1 mouse assessed as protection against subcutaneous metrazol-induced seizures at 100 mg/kg, ip measured after 4 hrs; type: functional, organism-based; set-up: dose 100 mg/kg
Mus musculus [13] = assay: Neurotoxicity in albino CF1 mouse at 100 mg/kg, ip measured after 0.25 hr; type: toxicity, organism-based; set-up: dose 100 mg/kg, route intraperitoneal; settings: in vivo
Mus musculus [14] = assay: Neurotoxicity in albino CF1 mouse at 100 mg/kg, ip measured after 0.5 hr; type: toxicity, organism-based; set-up: dose 100 mg/kg, route intraperitoneal; settings: in vivo
Mus musculus [15] = assay: Neurotoxicity in albino CF1 mouse at 100 mg/kg, ip measured after 1 hr; type: toxicity, organism-based; set-up: dose 100 mg/kg, route intraperitoneal; settings: in vivo
Mus musculus [16] = assay: Neurotoxicity in albino CF1 mouse at 100 mg/kg, ip measured after 4 hrs; type: toxicity, organism-based; set-up: dose 100 mg/kg, route intraperitoneal; settings: in vivo
Rattus norvegicus [17] = assay: Anticonvulsant activity in Sprague-Dawley rat assessed as protection against maximal electroshock-induced seizures at 30 mg/kg, po measured after 0.25 hr; type: functional, organism-based; set-up: dose 30 mg/kg
Rattus norvegicus [18] = assay: Anticonvulsant activity in Sprague-Dawley rat assessed as protection against maximal electroshock-induced seizures at 30 mg/kg, po measured after 0.5 hr; type: functional, organism-based; set-up: dose 30 mg/kg
Rattus norvegicus [19] = assay: Anticonvulsant activity in Sprague-Dawley rat assessed as protection against maximal electroshock-induced seizures at 30 mg/kg, po measured after 1 hr; type: functional, organism-based; set-up: dose 30 mg/kg
Rattus norvegicus [20] = assay: Anticonvulsant activity in Sprague-Dawley rat assessed as protection against maximal electroshock-induced seizures at 30 mg/kg, po measured after 2 hrs; type: functional, organism-based; set-up: dose 30 mg/kg
Rattus norvegicus [21] = assay: Anticonvulsant activity in Sprague-Dawley rat assessed as protection against maximal electroshock-induced seizures at 30 mg/kg, po measured after 4 hrs; type: functional, organism-based; set-up: dose 30 mg/kg
Rattus norvegicus [22] = assay: Neurotoxicity in MES Sprague-Dawley rat model at 30 mg/kg, po measured after 0.25 hr; type: toxicity, organism-based; set-up: dose 30 mg/kg, route oral; settings: in vivo
Rattus norvegicus [23] = assay: Neurotoxicity in MES Sprague-Dawley rat model at 30 mg/kg, po measured after 0.5 hr; type: toxicity, organism-based; set-up: dose 30 mg/kg, route oral; settings: in vivo
Rattus norvegicus [24] = assay: Neurotoxicity in MES Sprague-Dawley rat model at 30 mg/kg, po measured after 1 hr; type: toxicity, organism-based; set-up: dose 30 mg/kg, route oral; settings: in vivo
Rattus norvegicus [25] = assay: Neurotoxicity in MES Sprague-Dawley rat model at 30 mg/kg, po measured after 2 hrs; type: toxicity, organism-based; set-up: dose 30 mg/kg, route oral; settings: in vivo
Rattus norvegicus [26] = assay: Neurotoxicity in MES Sprague-Dawley rat model at 30 mg/kg, po measured after 4 hrs; type: toxicity, organism-based; set-up: dose 30 mg/kg, route oral; settings: in vivo
Rattus norvegicus [27] = assay: Anticonvulsant activity in Sprague-Dawley rat assessed as protection against maximal electroshock-induced seizures at 30 mg/kg, ip measured after 0.25 hr; type: functional, organism-based; set-up: dose 30 mg/kg
Rattus norvegicus [28] = assay: Anticonvulsant activity in Sprague-Dawley rat assessed as protection against maximal electroshock-induced seizures at 30 mg/kg, ip measured after 0.5 hr; type: functional, organism-based; set-up: dose 30 mg/kg
Rattus norvegicus [29] = assay: Anticonvulsant activity in Sprague-Dawley rat assessed as protection against maximal electroshock-induced seizures at 30 mg/kg, ip measured after 1 hr; type: functional, organism-based; set-up: dose 30 mg/kg
Rattus norvegicus [30] = assay: Anticonvulsant activity in Sprague-Dawley rat assessed as protection against maximal electroshock-induced seizures at 30 mg/kg, ip measured after 2 hrs; type: functional, organism-based; set-up: dose 30 mg/kg
Rattus norvegicus [31] = assay: Anticonvulsant activity in Sprague-Dawley rat assessed as protection against maximal electroshock-induced seizures at 30 mg/kg, ip measured after 4 hrs; type: functional, organism-based; set-up: dose 30 mg/kg
Rattus norvegicus [32] = assay: Neurotoxicity in MES Sprague-Dawley rat model at 30 mg/kg, ip measured after 0.25 hr; type: toxicity, organism-based; set-up: dose 30 mg/kg, route intraperitoneal; settings: in vivo
Rattus norvegicus [33] = assay: Neurotoxicity in MES Sprague-Dawley rat model at 30 mg/kg, ip measured after 0.5 hr; type: toxicity, organism-based; set-up: dose 30 mg/kg, route intraperitoneal; settings: in vivo
Rattus norvegicus [34] = assay: Neurotoxicity in MES Sprague-Dawley rat model at 30 mg/kg, ip measured after 1 hr; type: toxicity, organism-based; set-up: dose 30 mg/kg, route intraperitoneal; settings: in vivo
Rattus norvegicus [35] = assay: Neurotoxicity in MES Sprague-Dawley rat model at 30 mg/kg, ip measured after 2 hrs; type: toxicity, organism-based; set-up: dose 30 mg/kg, route intraperitoneal; settings: in vivo
Rattus norvegicus [36] = assay: Neurotoxicity in MES Sprague-Dawley rat model at 30 mg/kg, ip measured after 4 hrs; type: toxicity, organism-based; set-up: dose 30 mg/kg, route intraperitoneal; settings: in vivo
Mus musculus [37] = assay: Anticonvulsant activity in albino CF1 mouse assessed as protection against 32 mA current-induced seizures at 100 mg/kg, ip measured after 0.25 hr; type: functional, organism-based; set-up: dose 100 mg/kg
Mus musculus [38] = assay: Anticonvulsant activity in albino CF1 mouse assessed as protection against 32 mA current-induced seizures at 100 mg/kg, ip measured after 0.5 hr; type: functional, organism-based; set-up: dose 100 mg/kg
Mus musculus [39] = assay: Anticonvulsant activity in albino CF1 mouse assessed as protection against 32 mA current-induced seizures at 100 mg/kg, ip measured after 1 hr; type: functional, organism-based; set-up: dose 100 mg/kg
Mus musculus [40] = assay: Anticonvulsant activity in albino CF1 mouse assessed as protection against 32 mA current-induced seizures at 100 mg/kg, ip measured after 2 hrs; type: functional, organism-based; set-up: dose 100 mg/kg
Mus musculus [41] = assay: Anticonvulsant activity in albino CF1 mouse assessed as protection against 32 mA current-induced seizures at 100 mg/kg, ip measured after 4 hrs; type: functional, organism-based; set-up: dose 100 mg/kg
Mus musculus [42] = assay: Neurotoxicity in 32 mA current-induced seizure albino CF1 mouse model at 100 mg/kg, ip measured after 0.25 hr; type: toxicity, organism-based; set-up: dose 100 mg/kg, route intraperitoneal; settings: in vivo
Mus musculus [43] = assay: Neurotoxicity in 32 mA current-induced seizure albino CF1 mouse model at 100 mg/kg, ip measured after 0.5 hr; type: toxicity, organism-based; set-up: dose 100 mg/kg, route intraperitoneal; settings: in vivo
Mus musculus [44] = assay: Neurotoxicity in 32 mA current-induced seizure albino CF1 mouse model at 100 mg/kg, ip measured after 1 hr; type: toxicity, organism-based; set-up: dose 100 mg/kg, route intraperitoneal; settings: in vivo
Mus musculus [45] = assay: Neurotoxicity in 32 mA current-induced seizure albino CF1 mouse model at 100 mg/kg, ip measured after 2 hrs; type: toxicity, organism-based; set-up: dose 100 mg/kg, route intraperitoneal; settings: in vivo
Mus musculus [46] = assay: Neurotoxicity in 32 mA current-induced seizure albino CF1 mouse model at 100 mg/kg, ip measured after 4 hrs; type: toxicity, organism-based; set-up: dose 100 mg/kg, route intraperitoneal; settings: in vivo

Row | SMILES | Activity (Mus musculus [5]) | Activity (Mus musculus [6]) | Activity (Mus musculus [7]) | Activity (Mus musculus [8]) | Activity (Mus musculus [9]) | Activity (Mus musculus [10]) | Activity (Mus musculus [11]) | Activity (Mus musculus [12]) | Activity (Mus musculus [13]) | Activity (Mus musculus [14]) | Activity (Mus musculus [15]) | Activity (Mus musculus [16]) | Activity (Rattus norvegicus [17]) | Activity (Rattus norvegicus [18]) | Activity (Rattus norvegicus [19]) | Activity (Rattus norvegicus [20]) | Activity (Rattus norvegicus [21]) | Activity (Rattus norvegicus [22]) | Activity (Rattus norvegicus [23]) | Activity (Rattus norvegicus [24]) | also measured
1 | CCC1(c2ccccc2)C(=O)NC(=O)NC1=O [PHENOBARBITAL] |  |  |  |  |  |  |  |  |  |  |  |  |  |  |  |  |  |  |  |  | ED50 (Mus musculus [1]): 94 µmol/kg; ED50 (Mus musculus [2]): 57 µmol/kg; TD50 [3]: 297 µmol/kg; Time (Mus musculus [4]): 1 h
2 | O=C1NC(=O)[C@@H]2CCCN2[C@H]1c1ccccc1F | inactive | Active | inactive | inactive | Active | inactive | inactive | inactive | Toxic | Non-toxic | Non-toxic | Non-toxic | inactive | inactive | inactive | inactive | inactive | Non-toxic | Non-toxic | Non-toxic | Activity (Rattus norvegicus [25]): Non-toxic; Activity (Rattus norvegicus [26]): Non-toxic; Activity (Rattus norvegicus [27]): inactive; Activity (Rattus norvegicus [28]): inactive; Activity (Rattus norvegicus [29]): inactive; Activity (Rattus norvegicus [30]): inactive; Activity (Rattus norvegicus [31]): inactive; Activity (Rattus norvegicus [32]): Non-toxic; Activity (Rattus norvegicus [33]): Non-toxic; Activity (Rattus norvegicus [34]): Non-toxic; Activity (Rattus norvegicus [35]): Non-toxic; Activity (Rattus norvegicus [36]): Non-toxic
3 | O=C1NC(=O)[C@@H]2CCCN2[C@H]1c1ccc(C(F)(F)F)cc1 | Active | inactive | Active | inactive | Active | Active | inactive | inactive | Non-toxic | Non-toxic | Non-toxic | Non-toxic |  |  |  |  |  |  |  |  | Activity (Mus musculus [37]): inactive; Activity (Mus musculus [38]): Active; Activity (Mus musculus [39]): inactive; Activity (Mus musculus [40]): inactive; Activity (Mus musculus [41]): inactive; Activity (Mus musculus [42]): Non-toxic; Activity (Mus musculus [43]): Non-toxic; Activity (Mus musculus [44]): Non-toxic; Activity (Mus musculus [45]): Non-toxic; Activity (Mus musculus [46]): Non-toxic; Activity (Rattus norvegicus [27]): inactive; Activity (Rattus norvegicus [28]): inactive; Activity (Rattus norvegicus [29]): inactive; Activity (Rattus norvegicus [30]): inactive; Activity (Rattus norvegicus [31]): inactive; Activity (Rattus norvegicus [32]): Non-toxic; Activity (Rattus norvegicus [33]): Non-toxic; Activity (Rattus norvegicus [34]): Non-toxic; Activity (Rattus norvegicus [35]): Non-toxic; Activity (Rattus norvegicus [36]): Non-toxic
4 | O=C1NC(=O)[C@@H]2CCCN2[C@H]1c1cccc(F)c1 | Active | Active | inactive | inactive | Active | Active | inactive | inactive | Non-toxic | Non-toxic | Non-toxic | Non-toxic | inactive | inactive | inactive | inactive | inactive | Non-toxic | Non-toxic | Non-toxic | Activity (Mus musculus [37]): Active; Activity (Mus musculus [38]): Active; Activity (Mus musculus [39]): inactive; Activity (Mus musculus [40]): inactive; Activity (Mus musculus [41]): inactive; Activity (Mus musculus [42]): Non-toxic; Activity (Mus musculus [43]): Non-toxic; Activity (Mus musculus [44]): Non-toxic; Activity (Mus musculus [45]): Non-toxic; Activity (Mus musculus [46]): Non-toxic; Activity (Rattus norvegicus [25]): Non-toxic; Activity (Rattus norvegicus [26]): Non-toxic
